{"source": "patent US6994849B2", "about": "“Yeast Metschnikowia fructicola NRRL Y-30752 for inhibiting deleterious microorganisms on plants” (State of Israel, Ministry of Agriculture, Agricultural …, priority 2001, dated 2006)", "system": "Mf", "experiment": "Compatibility of Mf with agrochemicals (CFU in liquid medium)", "type": "cell-based, Metschnikowia fructicola", "details": "TBZ 0.02%; Teldor 0.015%; Mitos 0.025%; Rovral 0.02%; Switch 0.01%; Imazalil 0.005%; 0-48 h, FIG. 8", "description": "In order to establish that Mf is suitable for combination with a variety of commonly employed chemical pesticides, ten percent strength of liquid medium (NYDB) with various concentrations of common agrochemicals added was inoculated with a cell suspension of Mf (25 ml of 10^9 cell/ml) and incubated on a rotary shaker at room temperature. The following commercially available agrochemicals were employed: TBZ (0.02%); Teldor (0.015%); Mitos (0.025%); Rovral (0.02%); Switch (0.01%); and Imazalil (0.005%). Samples were aseptically withdrawn from the at 0 time, 24 h and 48 h of incubation. Samples were serially diluted and aliquots of 30 μl of the dilutions were plated on PDA. Plates were incubated at 25° C. for 3–4 days and colony forming units (CFU) were counted."}
{"smiles": "C=CCOC(Cn1ccnc1)c1ccc(Cl)cc1Cl", "note": "(stereo not shown) [Imazalil, 1-(2-2,4-Dichlorophenyl)-2(2-propenyloxy-ethyl)-1Himidazol]", "values": [{"measurement": "Effect of agrochemical on growth (CFU) of Mf", "value": "slowed, but did not prevent, its growth"}]}
